Reference: the supplement of paper PMC10307832

Tests used:
Experiment in all cases: relative viability (nuclei count vs DMSO), 5 days (fraction); higher = more cells survive
EPLC-272H = system: EPLC-272H
In short: (§1)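 Lung cancer cell lines in 1536-well plates were dosed by pin tool the day after seeding, either with one drug alone or with a fixed anchor-drug dose plus five library-drug doses (not always all listed) in √10 steps. After 5 days, cells were fixed and their nuclei stained in one step (final 0.05% Triton X-100, 1% formaldehyde, 1 ug/ml Hoechst), then counted on 4× images. Relative viability is the nuclei count in treated wells divided by that in vehicle wells. Values are medians of duplicate plates.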

SW 900 = system: SW 900
In short: as §1

NCI-H1793 = system: NCI-H1793
In short: as §1

COR-L 105 = system: COR-L 105
In short: as §1

SK-LU-1 = system: SK-LU-1
In short: as §1

NCI-H1666 = system: NCI-H1666
In short: as §1

NCI-H1792 = system: NCI-H1792
In short: as §1

HCC-366 = system: HCC-366
In short: as §1

HCC-78 = system: HCC-78
In short: as §1

A-427 = system: A-427
In short: as §1

NCI-H358 = system: NCI-H358
In short: as §1

NCI-H2009 = system: NCI-H2009
In short: as §1

NCI-H460 = system: NCI-H460
In short: as §1

NCI-H2085 = system: NCI-H2085
In short: as §1

LC-2-ad = system: LC-2-ad
In short: as §1

NCI-H2170 = system: NCI-H2170
In short: as §1

HOP-62 = system: HOP-62
In short: as §1

LU99A = system: LU99A
In short: as §1

UMC-11 = system: UMC-11
In short: as §1

LXF-289 = system: LXF-289
In short: as §1

NCI-H1944 = system: NCI-H1944
In short: as §1

NCI-H1915 = system: NCI-H1915
In short: as §1

`O=c1cc(N2CCOCC2)oc2c(-c3cccc4c3sc3ccccc34)cccc12` + Nc1ncn([C@H]2C[C@H](O)[C@@H](CO)O2)c(=O)n1 [Decitabine] (partner 2 µM) was tested. Which relative viability (EPLC-272H; first compound 0.01 µM) did it give?
The relative viability was 0.392.

And the relative viability (EPLC-272H; first compound 0.03162 µM)?
Its relative viability is 0.398.

And the relative viability (EPLC-272H; first compound 0.1 µM)?
Its relative viability is 0.329.

And the relative viability (EPLC-272H; first compound 0.3162 µM)?
The relative viability was 0.359.

What about the relative viability (EPLC-272H; first compound 1 µM) of the same compound?
The relative viability was 0.376.

What about the relative viability (SW 900; first compound 0.03162 µM) of the same compound?
The relative viability was 0.435.

And the relative viability (SW 900; first compound 0.1 µM)?
Its relative viability is 0.471.

What about the relative viability (SW 900; first compound 0.3162 µM) of the same compound?
The relative viability was 0.459.

And the relative viability (SW 900; first compound 1 µM)?
Its relative viability is 0.456.

What about the relative viability (NCI-H1793; first compound 0.01 µM) of the same compound?
The relative viability was 0.503.

And the relative viability (NCI-H1793; first compound 0.03162 µM)?
Its relative viability is 0.502.

What about the relative viability (NCI-H1793; first compound 0.1 µM) of the same compound?
Its relative viability is 0.564.

What about the relative viability (NCI-H1793; first compound 0.3162 µM) of the same compound?
Its relative viability is 0.54.

And the relative viability (NCI-H1793; first compound 1 µM)?
Its relative viability is 0.443.

What about the relative viability (COR-L 105; first compound 0.01 µM) of the same compound?
Its relative viability is 0.622.

And the relative viability (COR-L 105; first compound 0.03162 µM)?
Its relative viability is 0.7.

And the relative viability (COR-L 105; first compound 0.1 µM)?
Its relative viability is 0.746.

And the relative viability (COR-L 105; first compound 0.3162 µM)?
Its relative viability is 0.769.

And the relative viability (COR-L 105; first compound 1 µM)?
Its relative viability is 0.667.

What about the relative viability (SK-LU-1; first compound 0.01 µM) of the same compound?
The relative viability was 0.641.

And the relative viability (SK-LU-1; first compound 0.03162 µM)?
The relative viability was 0.621.

What about the relative viability (SK-LU-1; first compound 0.1 µM) of the same compound?
Its relative viability is 0.596.

And the relative viability (SK-LU-1; first compound 0.3162 µM)?
The relative viability was 0.621.

What about the relative viability (SK-LU-1; first compound 1 µM) of the same compound?
The relative viability was 0.661.

What about the relative viability (NCI-H1666; first compound 0.01 µM) of the same compound?
Its relative viability is 0.71.

What about the relative viability (NCI-H1666; first compound 0.03162 µM) of the same compound?
Its relative viability is 0.762.

What about the relative viability (NCI-H1666; first compound 0.1 µM) of the same compound?
The relative viability was 0.713.

And the relative viability (NCI-H1666; first compound 0.3162 µM)?
Its relative viability is 0.736.

And the relative viability (NCI-H1666; first compound 1 µM)?
The relative viability was 0.677.

What about the relative viability (NCI-H1792; first compound 0.01 µM) of the same compound?
The relative viability was 0.581.

What about the relative viability (NCI-H1792; first compound 0.03162 µM) of the same compound?
Its relative viability is 0.531.

What about the relative viability (NCI-H1792; first compound 0.3162 µM) of the same compound?
The relative viability was 0.556.

And the relative viability (NCI-H1792; first compound 1 µM)?
The relative viability was 0.561.

And the relative viability (HCC-366; first compound 0.01 µM)?
The relative viability was 0.331.

And the relative viability (HCC-366; first compound 0.03162 µM)?
The relative viability was 0.365.

What about the relative viability (HCC-366; first compound 0.1 µM) of the same compound?
The relative viability was 0.413.

And the relative viability (HCC-366; first compound 0.3162 µM)?
Its relative viability is 0.348.

And the relative viability (HCC-366; first compound 1 µM)?
Its relative viability is 0.296.

And the relative viability (HCC-78; first compound 0.01 µM)?
Its relative viability is 0.611.

What about the relative viability (HCC-78; first compound 0.03162 µM) of the same compound?
The relative viability was 0.716.

What about the relative viability (HCC-78; first compound 0.1 µM) of the same compound?
The relative viability was 0.544.

What about the relative viability (HCC-78; first compound 0.3162 µM) of the same compound?
The relative viability was 0.652.

And the relative viability (HCC-78; first compound 1 µM)?
The relative viability was 0.692.

And the relative viability (A-427; first compound 0.01 µM)?
The relative viability was 0.606.

What about the relative viability (A-427; first compound 0.03162 µM) of the same compound?
The relative viability was 0.552.

What about the relative viability (A-427; first compound 0.1 µM) of the same compound?
Its relative viability is 0.58.

What about the relative viability (A-427; first compound 0.3162 µM) of the same compound?
Its relative viability is 0.591.

And the relative viability (A-427; first compound 1 µM)?
Its relative viability is 0.592.

What about the relative viability (NCI-H358; first compound 0.01 µM) of the same compound?
Its relative viability is 0.222.

And the relative viability (NCI-H358; first compound 0.03162 µM)?
Its relative viability is 0.218.

What about the relative viability (NCI-H358; first compound 0.1 µM) of the same compound?
Its relative viability is 0.218.

What about the relative viability (NCI-H358; first compound 0.3162 µM) of the same compound?
Its relative viability is 0.21.

What about the relative viability (NCI-H358; first compound 1 µM) of the same compound?
The relative viability was 0.193.

And the relative viability (NCI-H2009; first compound 0.01 µM)?
Its relative viability is 0.368.

What about the relative viability (NCI-H2009; first compound 0.03162 µM) of the same compound?
The relative viability was 0.412.

What about the relative viability (NCI-H2009; first compound 0.1 µM) of the same compound?
Its relative viability is 0.332.

And the relative viability (NCI-H2009; first compound 0.3162 µM)?
Its relative viability is 0.368.

What about the relative viability (NCI-H2009; first compound 1 µM) of the same compound?
Its relative viability is 0.399.

And the relative viability (NCI-H460; first compound 0.01 µM)?
The relative viability was 0.509.

And the relative viability (NCI-H460; first compound 0.03162 µM)?
The relative viability was 0.48.

And the relative viability (NCI-H460; first compound 0.1 µM)?
The relative viability was 0.499.

And the relative viability (NCI-H460; first compound 0.3162 µM)?
Its relative viability is 0.472.

And the relative viability (NCI-H460; first compound 1 µM)?
Its relative viability is 0.51.

And the relative viability (NCI-H2085; first compound 0.01 µM)?
The relative viability was 0.591.

And the relative viability (NCI-H2085; first compound 0.03162 µM)?
The relative viability was 0.519.

And the relative viability (NCI-H2085; first compound 0.1 µM)?
Its relative viability is 0.526.

What about the relative viability (NCI-H2085; first compound 0.3162 µM) of the same compound?
The relative viability was 0.614.

And the relative viability (NCI-H2085; first compound 1 µM)?
The relative viability was 0.502.

And the relative viability (LC-2-ad; first compound 0.01 µM)?
The relative viability was 0.736.

What about the relative viability (LC-2-ad; first compound 0.03162 µM) of the same compound?
The relative viability was 0.801.

And the relative viability (LC-2-ad; first compound 0.1 µM)?
Its relative viability is 0.79.

What about the relative viability (LC-2-ad; first compound 0.3162 µM) of the same compound?
The relative viability was 0.822.

And the relative viability (LC-2-ad; first compound 1 µM)?
The relative viability was 0.893.

And the relative viability (NCI-H2170; first compound 0.01 µM)?
The relative viability was 0.472.

What about the relative viability (NCI-H2170; first compound 0.03162 µM) of the same compound?
Its relative viability is 0.447.

What about the relative viability (NCI-H2170; first compound 0.1 µM) of the same compound?
The relative viability was 0.475.

And the relative viability (NCI-H2170; first compound 0.3162 µM)?
Its relative viability is 0.457.

What about the relative viability (NCI-H2170; first compound 1 µM) of the same compound?
The relative viability was 0.461.

What about the relative viability (HOP-62; first compound 0.01 µM) of the same compound?
Its relative viability is 0.228.

And the relative viability (HOP-62; first compound 0.03162 µM)?
Its relative viability is 0.227.

And the relative viability (HOP-62; first compound 0.1 µM)?
Its relative viability is 0.236.

And the relative viability (HOP-62; first compound 0.3162 µM)?
Its relative viability is 0.249.

And the relative viability (HOP-62; first compound 1 µM)?
Its relative viability is 0.196.

What about the relative viability (LU99A; first compound 0.01 µM) of the same compound?
Its relative viability is 0.906.

And the relative viability (LU99A; first compound 0.03162 µM)?
Its relative viability is 1.01.

And the relative viability (LU99A; first compound 0.1 µM)?
Its relative viability is 0.993.

What about the relative viability (LU99A; first compound 0.3162 µM) of the same compound?
Its relative viability is 0.827.

And the relative viability (LU99A; first compound 1 µM)?
Its relative viability is 0.978.

And the relative viability (UMC-11; first compound 0.01 µM)?
Its relative viability is 0.587.

And the relative viability (UMC-11; first compound 0.03162 µM)?
Its relative viability is 0.562.

What about the relative viability (UMC-11; first compound 0.1 µM) of the same compound?
The relative viability was 0.492.

And the relative viability (UMC-11; first compound 0.3162 µM)?
The relative viability was 0.556.

What about the relative viability (UMC-11; first compound 1 µM) of the same compound?
Its relative viability is 0.687.

What about the relative viability (LXF-289; first compound 0.01 µM) of the same compound?
Its relative viability is 0.457.

And the relative viability (LXF-289; first compound 0.03162 µM)?
The relative viability was 0.386.

And the relative viability (LXF-289; first compound 0.1 µM)?
Its relative viability is 0.391.

And the relative viability (LXF-289; first compound 0.3162 µM)?
The relative viability was 0.371.

And the relative viability (LXF-289; first compound 1 µM)?
Its relative viability is 0.392.

What about the relative viability (NCI-H1944; first compound 0.01 µM) of the same compound?
The relative viability was 0.488.

And the relative viability (NCI-H1944; first compound 0.03162 µM)?
The relative viability was 0.448.

And the relative viability (NCI-H1944; first compound 0.1 µM)?
The relative viability was 0.443.

What about the relative viability (NCI-H1944; first compound 0.3162 µM) of the same compound?
The relative viability was 0.408.

And the relative viability (NCI-H1944; first compound 1 µM)?
The relative viability was 0.481.

And the relative viability (NCI-H1915; first compound 0.01 µM)?
Its relative viability is 0.28.

What about the relative viability (NCI-H1915; first compound 0.03162 µM) of the same compound?
Its relative viability is 0.253.

And the relative viability (NCI-H1915; first compound 0.1 µM)?
Its relative viability is 0.256.

And the relative viability (NCI-H1915; first compound 0.3162 µM)?
Its relative viability is 0.291.

What about the relative viability (NCI-H1915; first compound 1 µM) of the same compound?
Its relative viability is 0.266.
